The results in this text go back to article PMC6751662, “Pharmacological and functional similarities of the human neuropeptide Y system in C. elegans challenges phylogenetic views on the FLP/NPR system” (Cell Communication and Signaling : CCS, 2019).

Common to all, as to assay type: cell-based, C. elegans
In one test the target is T1, NPR-3 (Caenorhabditis elegans, UniProt P90745).
T1 construct: expressed in transfected cells; host or cells: HEK293
T1 sequence (P90745 1-376): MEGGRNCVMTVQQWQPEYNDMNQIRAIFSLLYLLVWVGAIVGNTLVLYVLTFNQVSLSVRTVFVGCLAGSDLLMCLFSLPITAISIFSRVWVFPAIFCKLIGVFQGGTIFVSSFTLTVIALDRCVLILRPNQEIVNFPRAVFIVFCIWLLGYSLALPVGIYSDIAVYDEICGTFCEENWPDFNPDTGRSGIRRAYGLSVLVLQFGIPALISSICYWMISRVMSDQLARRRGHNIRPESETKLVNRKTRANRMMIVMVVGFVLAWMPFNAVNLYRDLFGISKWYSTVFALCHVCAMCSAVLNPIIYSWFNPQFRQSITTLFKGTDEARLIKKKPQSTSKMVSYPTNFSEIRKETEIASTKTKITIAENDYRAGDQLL
The test is described as follows: cAMP reporter gene assay, Gi/o (inhibition of forskolin-induced cAMP), NPR-3. The note with it: for cAMP, x-fold of forskolin (mean), NPR-3: 1 µM forskolin set to 1.00; for cAMP, x-fold of forskolin (mean), NPR-3 / Gi (Gs) [x-fold of forskolin], NPR-3, mean: transiently transfected HEK293 cells, mean of at least three independent experiments; for Gi (Gs) [x-fold of forskolin], NPR-3, mean: inhibition of cAMP production induced by 1 µM forskolin (set to 1.00). As to the method: (§1) Activation of Gs and Gi/o was assessed with a cAMP reporter gene assay. HEK293 cells grown to 70–80% confluency in 6-well plates were transiently co-transfected with vectors encoding the receptor and the cAMP reporter gene plasmid pGL4.29 [luc2P/CRE/Hygro] (Promega; 4 μg total, 1:1 ratio) using Metafectene Pro (3 μl/μg DNA; Biontex) following the manufacturer’s instructions. 16 h post transfection, the cells were seeded into white 384-well plates at a density of 20,000 cells/well. On the next day, the medium was removed and the cells were stimulated with 20 μl of peptide solution (or forskolin as positive control) in serum-free DMEM for 4 h. For measuring Gi/o activity, the peptide solutions additionally contained 1 μM forskolin to elevate cellular cAMP levels. After incubation, the luciferase substrate OneGlo in lysis buffer (Promega) was added and the luminescence was measured in a microplate reader Tecan Spark (Tecan). Data were analyzed with GraphPad Prism 5.03 and are shown as fold of basal or fold of forskolin in case of Gαi/o activity.
(§2) For in vitro activation, data is presented as mean ± SEM of at least three independent experiments conducted in technical triplicate. […] For the C. elegans NPRs, we considered the strongest response elicited by any of the peptides downstream of a particular receptor as the receptor’s maximal signal. This may or may not be the biological maximum that can be reached by the ‘true’ endogenous agonist. For the human receptors, the response to the established endogenous agonist reflected the maximal signal.

The target in another test is T2, NPR-5b (Caenorhabditis elegans, UniProt Q6F3C9).
T2 sequence (Q6F3C9 1-433): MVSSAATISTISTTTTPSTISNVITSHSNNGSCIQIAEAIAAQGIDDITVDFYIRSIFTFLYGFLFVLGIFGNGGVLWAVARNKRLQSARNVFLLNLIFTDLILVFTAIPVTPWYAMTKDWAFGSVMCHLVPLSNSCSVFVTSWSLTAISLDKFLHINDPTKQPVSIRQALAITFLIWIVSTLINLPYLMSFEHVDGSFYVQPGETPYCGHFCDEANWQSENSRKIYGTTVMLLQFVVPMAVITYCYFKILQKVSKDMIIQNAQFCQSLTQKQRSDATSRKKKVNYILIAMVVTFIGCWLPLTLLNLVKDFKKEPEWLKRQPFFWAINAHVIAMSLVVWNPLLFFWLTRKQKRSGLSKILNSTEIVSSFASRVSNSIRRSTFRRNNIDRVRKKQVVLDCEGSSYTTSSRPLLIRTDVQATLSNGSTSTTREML
The test is described as follows: cAMP reporter gene assay, Gi/o (with forskolin), NPR-5b. Details: Emax: unit not given here. The note with it: transiently transfected HEK293 cells; for cAMP, x-fold of forskolin (mean), NPR-5b: 1 µM forskolin set to 1.00, values > 1 = cAMP stimulation; for cAMP, x-fold of forskolin (mean), NPR-5b / Gi (Gs) [x-fold of forskolin], NPR-5b, mean: mean of at least three independent experiments; for Gi (Gs) [x-fold of forskolin], NPR-5b, mean: with 1 µM forskolin (set to 1.00), increase of cellular cAMP consistent with Gs coupling. On the procedure:
as §1, with “(Tecan).” for “(Tecan). Data were analyzed with GraphPad Prism 5.03 and are shown as fold of basal or fold of forskolin in case of Gαi/o activity.”
as §2

For another test, the target named is T3, NPR-11 (Caenorhabditis elegans, UniProt Q18179).
T3 construct: expressed in transfected cells; host or cells: HEK293, transient
T3 sequence (Q18179 1-402): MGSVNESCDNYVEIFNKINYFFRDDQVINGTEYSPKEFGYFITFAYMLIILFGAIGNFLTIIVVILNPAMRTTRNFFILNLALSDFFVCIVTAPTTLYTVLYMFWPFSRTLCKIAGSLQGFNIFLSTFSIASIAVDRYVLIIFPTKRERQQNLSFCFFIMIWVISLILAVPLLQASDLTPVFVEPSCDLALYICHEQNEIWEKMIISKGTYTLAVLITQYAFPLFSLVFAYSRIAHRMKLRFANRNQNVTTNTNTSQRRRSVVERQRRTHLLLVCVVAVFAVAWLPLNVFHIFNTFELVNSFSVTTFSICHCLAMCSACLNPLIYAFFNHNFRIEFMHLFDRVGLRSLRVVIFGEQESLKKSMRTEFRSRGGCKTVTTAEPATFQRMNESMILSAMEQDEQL
The test is described as follows: cAMP reporter gene assay, Gi/o (inhibition of forskolin-induced cAMP), NPR-11. The note with it: for cAMP, x-fold of forskolin (mean), NPR-11: 1 µM forskolin set to 1.00; for cAMP, x-fold of forskolin (mean), NPR-11 / Gi (Gs) [x-fold of forskolin], NPR-11, mean: mean of at least three independent experiments; for Gi (Gs) [x-fold of forskolin], NPR-11, mean: inhibition of cAMP production induced by 1 µM forskolin (set to 1.00). On the procedure: as §1, §2

The target of a further test is T4, NPR-4b (Caenorhabditis elegans, UniProt A0A078BTK0).
T4 sequence (A0A078BTK0 1-376): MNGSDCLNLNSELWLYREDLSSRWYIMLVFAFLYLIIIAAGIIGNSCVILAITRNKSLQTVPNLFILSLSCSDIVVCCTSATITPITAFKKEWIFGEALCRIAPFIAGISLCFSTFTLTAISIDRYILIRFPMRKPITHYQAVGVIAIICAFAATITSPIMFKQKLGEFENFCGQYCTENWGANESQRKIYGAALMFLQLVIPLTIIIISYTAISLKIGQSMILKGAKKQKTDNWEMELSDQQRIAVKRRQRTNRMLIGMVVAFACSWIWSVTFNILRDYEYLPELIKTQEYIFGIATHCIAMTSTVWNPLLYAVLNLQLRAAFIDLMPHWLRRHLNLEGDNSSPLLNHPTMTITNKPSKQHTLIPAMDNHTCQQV
The test is described as follows: cAMP reporter gene assay, Gi/o (inhibition of forskolin-induced cAMP), NPR-4b. The note with it: for cAMP, x-fold of forskolin (mean), NPR-4b: 1 µM forskolin set to 1.00; for cAMP, x-fold of forskolin (mean), NPR-4b / Gi (Gs) [x-fold of forskolin], NPR-4b, mean: mean of at least three independent experiments; for Gi (Gs) [x-fold of forskolin], NPR-4b, mean: inhibition of cAMP production induced by 1 µM forskolin (set to 1.00). On the procedure:
as §1, with “(Tecan).” for “(Tecan). Data were analyzed with GraphPad Prism 5.03 and are shown as fold of basal or fold of forskolin in case of Gαi/o activity.”
as §2

Setting [1] is: 0.1 µM peptide, transiently transfected HEK293 cells.
The mark [2] stands for this setting: 10 µM peptide, transiently transfected HEK293 cells.
[3] abbreviates: HEK293, read-out: Emax ± SEM [%], SEM.

Ends that are not written are not given here.

On to “APLEGFEDMSGFLRTIDGIQKPRF-NH2 [FLP-33, NPY-like C. elegans FLP with C-terminal RxRF/Ya signature]”, for which the “cAMP, x-fold of forskolin (mean), NPR-3” value on NPR-3 (0.1 µM peptide) was 0.77 x-fold of forskolin; at NPR-3 (10 µM peptide), 0.85 x-fold of forskolin. Besides, the “cAMP, x-fold of forskolin (mean), NPR-5b” value on NPR-5b (0.1 µM peptide) was 0.79 x-fold of forskolin; at NPR-5b (10 µM peptide), 0.85 x-fold of forskolin. Besides, the figures for the “cAMP, x-fold of forskolin (mean), NPR-11” value at NPR-11 (setting [1]) and at NPR-11 (setting [2]) were 0.77 x-fold of forskolin and 0.21 x-fold of forskolin, respectively. The “Emax ± SEM [%]” value at NPR-11 (NPR-11, forskolin (1 µM) set to 1.00, lower values correspond to high Gi/o activity, transiently transfected HEK293 cells, mean ± SEM of at least three independent experiments, SEM) was -0.57 ± 0.06%. Also, the “cAMP, x-fold of forskolin (mean), NPR-4b” value is 0.85 x-fold of forskolin on NPR-4b (setting [1]) and 0.79 x-fold of forskolin at NPR-4b (setting [2]).

Consider RGPSGPLAF-NH2 [[R8A]FLP-15-2], for which the “Gi (Gs) [x-fold of forskolin], NPR-3, mean” value was 0.97 x-fold of forskolin at NPR-3 (0.1 µM peptide) and 0.88 x-fold of forskolin at NPR-3 (10 µM peptide). Besides, the figures for the “Gi (Gs) [x-fold of forskolin], NPR-5b, mean” value at NPR-5b (0.1 µM peptide) and on NPR-5b (10 µM peptide) were 0.98 x-fold of forskolin and 0.93 x-fold of forskolin, respectively. The “Gi (Gs) [x-fold of forskolin], NPR-11, mean” value is given as 0.93 x-fold of forskolin on NPR-11 (setting [1]) and 0.53 x-fold of forskolin at NPR-11 (setting [2]). The “Gi (Gs) [x-fold of forskolin], NPR-4b, mean” value is on record as 0.93 x-fold of forskolin at NPR-4b (setting [1]) and 0.97 x-fold of forskolin at NPR-4b (setting [2]).

Turning to “NPENDTPFGTMRF-NH2 [FLP-3-4, C. elegans FMRFamide-like peptide, C-terminally amidated, synthesized by SPPS]”, the “cAMP, x-fold of forskolin (mean), NPR-3” value at NPR-3 (0.1 µM peptide) is recorded as 0.85 x-fold of forskolin; at NPR-3 (10 µM peptide), 0.89 x-fold of forskolin. The figures for the “cAMP, x-fold of forskolin (mean), NPR-5b” value at NPR-5b (0.1 µM peptide) and at NPR-5b (10 µM peptide) were 1.10 x-fold of forskolin and 3.95 x-fold of forskolin, respectively. For the same substance, the “cAMP, x-fold of forskolin (mean), NPR-11” value is recorded as 0.80 x-fold of forskolin on NPR-11 (setting [1]) and 0.97 x-fold of forskolin at NPR-11 (setting [2]). Moreover, the “cAMP, x-fold of forskolin (mean), NPR-4b” value at NPR-4b (setting [1]) is 0.67 x-fold of forskolin; on NPR-4b (setting [2]) it was 0.23 x-fold of forskolin.

In the case of GLGPRPLRF-NH2 [FLP-21], the Emax at NPR-3 (setting [3]) is -0.59 ± 0.26%; on NPR-5b (NPR-5b, forskolin (1 µM) set to 1.00, increase of cAMP, mean ± SEM of at least three independent experiments, SEM) it was 3.8 ± 0.26; on NPR-11 (setting [3]), -0.72 ± 0.06%; at NPR-4b (NPR-4b, forskolin (1 µM) set to 1.00, lower values correspond to high Gi/o activity, transiently transfected HEK293 cells, mean ± SEM of at least three independent experiments, SEM), -0.58 ± 0.07%. In addition, the EC50 at NPR-5b (NPR-5b, full concentration-response curve, with 1 µM forskolin, increase of cAMP, at least three independent experiments) is 432 nM; at NPR-11, 102 nM; on NPR-4b, 358 nM.
